Experimental data published in patent US5663207A, “Gem-dichlorocyclopropanes as antitumor agents” (priority 1995, dated 1997).

Columns and labels:
[1] = tested on: Immature Swiss-Webster female mice (estradiol-stimulated uterine weight); assay: Antiuterotrophic assay for antiestrogenic activity in immature mice; type: in vivo, mouse (Swiss-Webster); conditions: 0.4, 0.8, and 1.6 mg; three-day assay; estradiol 0.03 μg
From the text: The biological evaluation of the test compounds consisted of the in vitro rat cytosolic estradiol receptor binding assay, the in vivo immature mouse uterotrophic (estrogenic) and antiuterotrophic (antiestrogenic) assays, and the in vitro suppression of the proliferation of the ER positive MCF-7 human breast cancer cell line.
Vital-free immature female Swiss-Webster mice were obtained at 17-19 days of age from Sasco weighing 8-10 g, and were used in the uterotrophic and antiuterotrophic assays. Immature female Sprague-Dawley rats, obtained at 17-19 days of age from Sasco, weighing 28-33 g, were used as sources of uteri for the estradiol receptor binding assay. Animals were housed in wire topped polycarbonate cages at six animals per cage, with the environment controlled at 25° C. and a 12 h light/dark cycle. […]
The antiestrogenic assay was conducted as described for the estrogenic assay, except that each mouse in the cyclopropyl treatment groups received a standard stimulating dose of estradiol (0.03 μg) in sesame oil (0.1 mL) and the test compounds or MER 25 were administered in isopropyl myristate (0.05 mL) in a dosage range of 0.4, 0.8 and 1.6 mg (total dose). […] Antiestrogenic activity was measured as a decrease in the estradiol-stimulated […] response in groups that received both the test compound and estradiol as compared to the group treated only with estradiol.

estrogen receptor = target: T1, estrogen receptor (Rattus norvegicus, UniProt P06211); conditions: cited from earlier work
T1 construct: ovariectomized rat uterine cytosolic estrogen receptor preparation; from tissue; host or cells: uterine cytosol of ovariectomized Sprague-Dawley rats (immature rats from Sasco are named as uterus source, mature ovariectomized rats)
T1 sequence (P06211 1-600): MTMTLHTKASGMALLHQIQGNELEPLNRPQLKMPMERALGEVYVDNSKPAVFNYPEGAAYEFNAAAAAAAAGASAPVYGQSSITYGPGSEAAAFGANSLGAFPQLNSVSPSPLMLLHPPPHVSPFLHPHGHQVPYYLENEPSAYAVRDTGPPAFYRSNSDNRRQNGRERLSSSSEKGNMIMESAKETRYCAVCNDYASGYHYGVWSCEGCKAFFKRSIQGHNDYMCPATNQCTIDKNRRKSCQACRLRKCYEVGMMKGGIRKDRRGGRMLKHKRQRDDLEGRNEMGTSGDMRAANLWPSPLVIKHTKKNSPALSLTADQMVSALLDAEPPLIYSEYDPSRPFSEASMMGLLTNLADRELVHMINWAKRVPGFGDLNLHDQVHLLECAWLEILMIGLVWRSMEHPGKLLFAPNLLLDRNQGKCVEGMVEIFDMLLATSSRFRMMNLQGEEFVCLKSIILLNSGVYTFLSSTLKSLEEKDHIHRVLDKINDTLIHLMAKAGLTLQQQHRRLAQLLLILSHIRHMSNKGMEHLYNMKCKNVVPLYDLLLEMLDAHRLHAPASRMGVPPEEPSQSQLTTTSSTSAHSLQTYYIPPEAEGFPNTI

In the case of `CCN(CC)CCOc1ccc(C(O)(Cc2ccc(OC)cc2)c2ccccc2)cc1` (stereo not drawn) [MER-25], the “antiestrogenic activity: effect on estradiol-induced uterine weight gain (in words)” value [1] is listed as “significant reduction in estradiol-induced uterotrophic activity”, the “RBA (relative binding affinity)” value (estrogen receptor; relative to estradiol = 100%, footnote e, Day et al. (1991)) is listed as “--^e (Less than 0.01%.)” and the “[3H]-estradiol displacement curve (in words)” value (estrogen receptor; standards, Day et al., 1991) is listed as “very weak dose-related displacement”.
